According to patent US9630977B2, “Cephalosporin derivatives and pharmaceutical compositions thereof” (Legochem Biosciences, Inc., priority 2011, dated 2017):
Values after ≈ are worked out from the molar mass of the structure shown.

These compounds were tested on E. cloacae β19 (assay: In vitro antibacterial activity test (broth microdilution)). Conditions: Enterobacter cloacae.
Assay type: cell-based
Summary of the method: (§1)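 Compounds were dissolved in DMSO at 10,240 ug/mL stock, diluted two-fold in DMSO and then twenty-fold in sterile water. Final test concentrations spanned 0.0626 to 128 ug/mL with 2.5% (V/V) DMSO, and MIC90 was read by CLSI broth microdilution.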
`CC(C)(O/N=C(\C(=O)N[C@@H]1C(=O)N2C(C(=O)[O-])=C(/C=C/C[n+]3cnc(N)c(NCCN)c3N)CSC12)c1csc(N)n1)C(=O)O` (stereo partly shown) [Compound 44] was tested, and the MIC90 was 0.5 µg/mL (≈ 0.756 µM).

These compounds were tested on A. calcoaceticus ATCC15473 in the same assay as above. Conditions: Acinetobacter calcoaceticus, ATCC15473, A. calcoaceticus ATCC15473.
Assay type: cell-based
Summary of the method: as §1
`CC(C)(O/N=C(\C(=O)N[C@@H]1C(=O)N2C(C(=O)[O-])=C(/C=C/C[n+]3cnc(N)c(NCCN)c3N)CSC12)c1csc(N)n1)C(=O)O` (stereo partly shown) [Compound 44] showed an MIC90 of 1 µg/mL (≈ 1.51 µM).

These compounds were tested on A. baumannii 49 in the same assay as above. Conditions: Acinetobacter baumannii, 49, A. baumannii 49.
Assay type: cell-based
Summary of the method: as §1
With `CC(C)(O/N=C(\C(=O)N[C@@H]1C(=O)N2C(C(=O)[O-])=C(/C=C/C[n+]3cnc(N)c(NCCN)c3N)CSC12)c1csc(N)n1)C(=O)O` (stereo partly shown) [Compound 44] the MIC90 was over 128 µg/mL.

Each compound was assayed on K. pneumoniae β10 in the same assay as above. Conditions: Klebsiella pneumoniae.
Assay type: cell-based
Summary of the method: as §1
Work on `CC(C)(O/N=C(\C(=O)N[C@@H]1C(=O)N2C(C(=O)[O-])=C(/C=C/C[n+]3cnc(N)c(NCCN)c3N)CSC12)c1csc(N)n1)C(=O)O` (stereo partly shown) [Compound 44] yielded an MIC90 of 0.5 µg/mL (≈ 0.756 µM).

Each compound was assayed on A. baumannii 46 in the same assay as above. Conditions: Acinetobacter baumannii, 46, A. baumannii 46.
Assay type: cell-based
Summary of the method: as §1
`CC(C)(O/N=C(\C(=O)N[C@@H]1C(=O)N2C(C(=O)[O-])=C(/C=C/C[n+]3cnc(N)c(NCCN)c3N)CSC12)c1csc(N)n1)C(=O)O` (stereo partly shown) [Compound 44] gave an MIC90 of 16 µg/mL (≈ 24.2 µM).

Each compound was assayed on M. catarrhalis 2524 in the same assay as above. Conditions: Moraxella catarrhalis, 2524.
Assay type: cell-based
Summary of the method: as §1
In the case of `CC(C)(O/N=C(\C(=O)N[C@@H]1C(=O)N2C(C(=O)[O-])=C(/C=C/C[n+]3cnc(N)c(NCCN)c3N)CSC12)c1csc(N)n1)C(=O)O` (stereo partly shown) [Compound 44], the MIC90 is reported as under 0.0625 µg/mL.

The compounds below were run on K. pneumoniae β14 in the same assay as above. Conditions: Klebsiella pneumoniae.
Assay type: cell-based
Summary of the method: as §1
In the case of `CC(C)(O/N=C(\C(=O)N[C@@H]1C(=O)N2C(C(=O)[O-])=C(/C=C/C[n+]3cnc(N)c(NCCN)c3N)CSC12)c1csc(N)n1)C(=O)O` (stereo partly shown) [Compound 44], the MIC90 is reported as 1 µg/mL (≈ 1.51 µM).

Each compound was assayed on P. aeruginosa 1912E in the same assay as above. Conditions: Pseudomonas aeruginosa, 1912E.
Assay type: cell-based
Summary of the method: as §1
Compound `CC(C)(O/N=C(\C(=O)N[C@@H]1C(=O)N2C(C(=O)[O-])=C(/C=C/C[n+]3cnc(N)c(NCCN)c3N)CSC12)c1csc(N)n1)C(=O)O` (stereo partly shown) [Compound 44] has an MIC90 of 8 µg/mL (≈ 12.1 µM).

Each compound was assayed on K. pneumoniae β9 in the same assay as above. Conditions: Klebsiella pneumoniae.
Assay type: cell-based
Summary of the method: as §1
`CC(C)(O/N=C(\C(=O)N[C@@H]1C(=O)N2C(C(=O)[O-])=C(/C=C/C[n+]3cnc(N)c(NCCN)c3N)CSC12)c1csc(N)n1)C(=O)O` (stereo partly shown) [Compound 44] showed an MIC90 of 1 µg/mL (≈ 1.51 µM).

The compounds below were run on K. pneumoniae β11 in the same assay as above. Conditions: Klebsiella pneumoniae.
Assay type: cell-based
Summary of the method: as §1
`CC(C)(O/N=C(\C(=O)N[C@@H]1C(=O)N2C(C(=O)[O-])=C(/C=C/C[n+]3cnc(N)c(NCCN)c3N)CSC12)c1csc(N)n1)C(=O)O` (stereo partly shown) [Compound 44] showed an MIC90 of 32 µg/mL (≈ 48.4 µM).

Each compound was assayed on K. pneumoniae β13 in the same assay as above. Conditions: Klebsiella pneumoniae.
Assay type: cell-based
Summary of the method: as §1
In the case of `CC(C)(O/N=C(\C(=O)N[C@@H]1C(=O)N2C(C(=O)[O-])=C(/C=C/C[n+]3cnc(N)c(NCCN)c3N)CSC12)c1csc(N)n1)C(=O)O` (stereo partly shown) [Compound 44], the MIC90 is reported as 1 µg/mL (≈ 1.51 µM).

These compounds were tested on E. coli β4 in the same assay as above. Conditions: Escherichia coli.
Assay type: cell-based
Summary of the method: as §1
For `CC(C)(O/N=C(\C(=O)N[C@@H]1C(=O)N2C(C(=O)[O-])=C(/C=C/C[n+]3cnc(N)c(NCCN)c3N)CSC12)c1csc(N)n1)C(=O)O` (stereo partly shown) [Compound 44], the MIC90 was 0.5 µg/mL (≈ 0.756 µM).

These compounds were tested on P. aeruginosa 6065Y in the same assay as above. Conditions: Pseudomonas aeruginosa, 6065Y.
Assay type: cell-based
Summary of the method: as §1
`CC(C)(O/N=C(\C(=O)N[C@@H]1C(=O)N2C(C(=O)[O-])=C(/C=C/C[n+]3cnc(N)c(NCCN)c3N)CSC12)c1csc(N)n1)C(=O)O` (stereo partly shown) [Compound 44] showed an MIC90 of 32 µg/mL (≈ 48.4 µM).

What follows are compounds tested on P. aeruginosa 37 in the same assay as above. Conditions: Pseudomonas aeruginosa, 37, P. aeruginosa 37.
Assay type: cell-based
Summary of the method: as §1
For `CC(C)(O/N=C(\C(=O)N[C@@H]1C(=O)N2C(C(=O)[O-])=C(/C=C/C[n+]3cnc(N)c(NCCN)c3N)CSC12)c1csc(N)n1)C(=O)O` (stereo partly shown) [Compound 44], the MIC90 was 16 µg/mL (≈ 24.2 µM).

These compounds were tested on P. aeruginosa 43 in the same assay as above. Conditions: Pseudomonas aeruginosa, 43.
Assay type: cell-based
Summary of the method: as §1
`CC(C)(O/N=C(\C(=O)N[C@@H]1C(=O)N2C(C(=O)[O-])=C(/C=C/C[n+]3cnc(N)c(NCCN)c3N)CSC12)c1csc(N)n1)C(=O)O` (stereo partly shown) [Compound 44] showed an MIC90 of 128 µg/mL (≈ 193 µM).

Each compound was assayed on A. baumannii 52 in the same assay as above. Conditions: Acinetobacter baumannii, 52.
Assay type: cell-based
Summary of the method: as §1
Work on `CC(C)(O/N=C(\C(=O)N[C@@H]1C(=O)N2C(C(=O)[O-])=C(/C=C/C[n+]3cnc(N)c(NCCN)c3N)CSC12)c1csc(N)n1)C(=O)O` (stereo partly shown) [Compound 44] yielded an MIC90 of over 128 µg/mL.

These compounds were tested on E. coli AG100 in the same assay as above. Conditions: Escherichia coli, AG100.
Assay type: cell-based
Summary of the method: as §1
`CC(C)(O/N=C(\C(=O)N[C@@H]1C(=O)N2C(C(=O)[O-])=C(/C=C/C[n+]3cnc(N)c(NCCN)c3N)CSC12)c1csc(N)n1)C(=O)O` (stereo partly shown) [Compound 44] showed an MIC90 of 0.25 µg/mL (≈ 0.378 µM).

What follows are compounds tested on K. pneumoniae 2011E in the same assay as above. Conditions: Klebsiella pneumoniae, 2011E.
Assay type: cell-based
Summary of the method: as §1
`CC(C)(O/N=C(\C(=O)N[C@@H]1C(=O)N2C(C(=O)[O-])=C(/C=C/C[n+]3cnc(N)c(NCCN)c3N)CSC12)c1csc(N)n1)C(=O)O` (stereo partly shown) [Compound 44] was tested, and the MIC90 was 0.5 µg/mL (≈ 0.756 µM).

Each compound was assayed on P. aeruginosa 40 in the same assay as above. Conditions: Pseudomonas aeruginosa, 40.
Assay type: cell-based
Summary of the method: as §1
In the case of `CC(C)(O/N=C(\C(=O)N[C@@H]1C(=O)N2C(C(=O)[O-])=C(/C=C/C[n+]3cnc(N)c(NCCN)c3N)CSC12)c1csc(N)n1)C(=O)O` (stereo partly shown) [Compound 44], the MIC90 is reported as 16 µg/mL (≈ 24.2 µM).
